Laboratory results from patent publication US7786299B2, “Methods for treating diseases or conditions using dihydropteridinone compounds” (Boehringer Ingelheim Pharma GmbH & Co. KG, priority 2003, dated 2010).

Columns and labels:
H460-VINC = test: Cytotoxicity on H460-VINC cells (Table 1; method not given); assay type: cell-based; conditions: H460-VINC of Table 1; unit inferred
HeLaS3 cells = test: Measurement of cytotoxicity on cultivated human tumour cells (AlamarBlue); assay type: cell-based; conditions: HeLa in Table 1; unit inferred
Summary of the method: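 HeLaS3 cervical cancer cells, 1000 cells/well in Ham's F12 with 10% FCS, exposed 72 h to compound (1% DMSO final) in triplicate. AlamarBlue added for further 7 h, fluorescence at ex 530/em 590 nm; IC50 from activity as percent of untreated control, medium-corrected.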

Structure (SMILES) | IC50 (H460-VINC) [nM] | IC50 (HeLaS3 cells) [nM]
CCC1C(=O)N(C)c2cnc(Nc3ccc(C(=O)NC4CCCN(C)CC4)cc3OC)nc2N1CCC(C)C (mixture of isomers) [Example 172] | 772 | 20
COc1cc(C(=O)NC2CC(C)(C)N(C)C(C)(C)C2)ccc1Nc1ncc2c(n1)N(CCC(C)C)C(C)C(=O)N2C (centres unmarked) [Example 1] | 604 | 46
CCC1C(=O)N(C)c2cnc(Nc3ccc(C(=O)NC4CCC(N5CCCC5)CC4)cc3OC)nc2N1C1CCCC1 (centres unmarked) [Example 138] | 1140 | 43
COc1cc(C(=O)NCCN2CCCCC2)ccc1Nc1ncc2c(n1)N(C1CCCC1)C(C)C(=O)N2C (centres unmarked) [Example 66] | 250 | 64
CC[C@@H]1C(=O)N(C)c2cnc(Nc3ccc(C(=O)NCCN(C(C)C)C(C)C)cc3OC)nc2N1CCC(C)C [Example 160] | 728 | 37
CC[C@@H]1C(=O)N(C)c2cnc(Nc3ccc(C(=O)NC4CCN(C)CC4)cc3OC)nc2N1CCC(C)C [Example 171] | 790 | 31
CC1C(=O)N(C)c2cnc(Nc3ccc(C(=O)NCCCN4CCOCC4)cc3)nc2N1C1CCCC1 (centres unmarked) [Example 69] | 633 | 55
